Source: patent publication US11560373B2, “Compounds and their use as PDE4 activators” (Mironid Limited, priority 2018, dated 2023)

molecular target: T1, PDE4D5 (Homo sapiens, UniProt Q08499); experiment: PDE assay, [3H]cAMP hydrolysis by HEK-PDE4D5 cell lysate cytosol fraction; assay type: biochemical; conditions: 30 μM; mean % increase in counts over basal activity
T1 construct: stably expressed the full-length human PDE4D5, PDE4B1 and PDE4A4 long isoforms; made in house
Protocol: HEK 293 cells were transfected with pDEST™ PDE4 expression vectors using Lipofectamine LTX/Plus reagent (Invitrogen) as outlined by the manufacturer and clonal isolates expanded to obtain cell lines that stably expressed the full-length human PDE4D5, PDE4B1 and PDE4A4 long isoforms and the full length human PDE4B2 short isoform. These were called the HEK-PDE4D5, HEK-PDE4B1, HEK-PDE4A4 and HEK-PDE4B2 cell lines, respectively.
HEK-PDE4D5 cells were seeded out in 100 mm plates and incubated at 37° C. in an atmosphere of 5% CO2, 95% air. Cell lysates were prepared using KHEM buffer [50 mM KCl, 10 mM EGTA, 50 mM HEPES (pH 7.2), 1.92 mM MgCl2].
To prepare the cell lysates, the 100 mm plates containing the cells were placed on ice and washed with ice-cold PBS (phosphate buffered saline, pH 7.4). KHEM buffer (500 μl) was added to the cells. Cells were then scraped off the plate and triturated using a needle (BD Microlance™ 0.8, 40 mm). The lysed cells were then centrifuged at 2000 rpm for 10 minutes to remove cell debris and the supernatant (cell lysate containing recombinant PDE4D5) was transferred to a fresh tube and kept on ice.
The cell lysate containing recombinant PDE4D5 was transferred into a centrifuge tube and placed into an ultracentrifuge (BECKMAN COULTER) and spun at high speed (100,000 g) for 30 minutes at 4° C. The cytosol fraction was then collected and its protein amount determined using a BCA protein assay.
PDE assays were performed in thin walled V-bottomed 96-well plates. The assays were performed at a final concentration of 10 mM Tris/5 mM MgCl2 plus PDE4D5 cell lysate cytosol fraction, containing over-expressed PDE4D5, with and without test compound. The lysate/compound mix were incubated together for 15 min at room temperature on an orbital shaker prior to addition of [^3H] cAMP (final concentration 1 μM [^3H] cAMP; Perkin Elmer) to a final volume of 50 μl per reaction. The reactions were then incubated for 10 minutes at 30° C., terminated by heating for 2 min at 95° C. and allowed to cool. Snake venom (12.5 μl of 1 mg/ml; Crotalus atrox, Sigma) was then added and the plates were agitated and incubated for a further 15 minutes at 30° C. Dowex ion exchange resin (Sigma, chloride form, 200-400 mesh; 200 μl; prepared as a 1:1 Dowex: water stock, thoroughly re-suspended and diluted 2:1 with ethanol) was then added to each well and the plates incubated for 15 min at room temperature on an orbital shaker ensuring sufficient agitation for resin suspension (550 RPM). The reaction mixture was then transferred to a 96 well filter plate (Millipore; […] pore size) and filtered into a receiving 96-well plate to remove the dowex suspension. 30 μL of the filtered solution was then transferred to the wells of an Opti-plate (Perkin Elmer) 96 well assay plate and 120 μl of Microscint 40 scintillation fluid was added. The plate was then placed on an orbital shaker for 10 min at high speed (900 RPM) to mix the sample with scintillation fluid prior to quantitation using a plate based scintillation counter (Top-Count).
The % increase in counts in the presence of test compound at a particular concentration indicates the % increase in enzyme activity at that concentration.

T1 sequence (Q08499 1-745 isoform Q08499-6): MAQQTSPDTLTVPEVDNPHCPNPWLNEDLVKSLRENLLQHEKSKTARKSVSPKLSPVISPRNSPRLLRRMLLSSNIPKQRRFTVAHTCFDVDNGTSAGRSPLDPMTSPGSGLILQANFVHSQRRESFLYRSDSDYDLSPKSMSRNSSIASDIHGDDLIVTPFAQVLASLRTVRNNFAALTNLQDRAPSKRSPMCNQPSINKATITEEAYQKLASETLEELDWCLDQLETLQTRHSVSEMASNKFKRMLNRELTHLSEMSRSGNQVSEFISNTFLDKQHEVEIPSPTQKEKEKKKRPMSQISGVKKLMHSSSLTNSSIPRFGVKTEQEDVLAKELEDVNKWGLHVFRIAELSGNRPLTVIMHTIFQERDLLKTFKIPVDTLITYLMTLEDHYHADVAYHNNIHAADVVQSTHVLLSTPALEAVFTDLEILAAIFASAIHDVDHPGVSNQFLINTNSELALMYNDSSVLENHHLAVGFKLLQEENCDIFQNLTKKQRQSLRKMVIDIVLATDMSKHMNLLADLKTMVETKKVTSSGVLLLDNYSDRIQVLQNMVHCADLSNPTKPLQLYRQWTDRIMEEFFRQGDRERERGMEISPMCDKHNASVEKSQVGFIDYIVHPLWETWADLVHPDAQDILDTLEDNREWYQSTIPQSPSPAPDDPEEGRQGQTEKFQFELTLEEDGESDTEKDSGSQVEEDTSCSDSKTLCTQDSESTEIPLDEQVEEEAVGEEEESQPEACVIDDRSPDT

activation at 30 µM [%]	Structure (SMILES)
81.6	CCn1nc(-c2ccc(Cl)c(OC(C)C)c2)nc1CC(=O)NCc1ccc2[nH]ncc2c1 [Example 38, 2-[3-(4-Chloro-3-isopropyloxyphenyl)-1-ethyl-1H-1,2,4-triazol-5-yl]-N-[(1H-indazol-5-yl)methyl]acetamide]
40	CCn1nc(-c2ccc(Cl)c(OC(C)C)c2)nc1CC(=O)N[C@H]1CCc2ncccc21 [Example 42, 2-[3(4-Chloro-3-isopropyloxyphenyl)-1-ethyl-1H-1,2,4-triazol-5-yl]-N-[(5S)-5H,6H,7H-cyclopenta[b]pyridin-5-yl]acetamide]
45	CC(C)Oc1cc(-c2nc(CC(=O)N[C@H]3CCc4ccccc43)n(C)n2)ccc1Cl [Example 44]
26.2	CC(C)Oc1cc(-c2nc(CC(=O)NCc3cccc(F)c3)n(C)n2)ccc1Cl [Example 46, 2-[3-(4-Chloro-3-isopropyloxyphenyl)-1-methyl-1H-1,2,4-triazol-5-yl]-N-[(3-fluorophenyl)methyl]acetamide]
45.2	CC(C)Oc1cc(-c2nc(CC(=O)N[C@H]3CCOc4ccccc43)n(C)n2)ccc1Cl [Example 48, 2-[3-(4-Chloro-3-isopropyloxyphenyl)-1-methyl-1H-1,2,4-triazol-5-yl]-N-[(4S)-3,4-dihydro-2H-1-benzopyran-4-yl]acetamide]
49.8	CCn1nc(-c2ccc(Cl)c(F)c2)nc1CC(=O)N[C@@H]1c2ccccc2C[C@@H]1O [Example 62, 2-[3-(4-Chloro-3-fluorophenyl)-1-ethyl-1H-1,2,4-triazol-5-yl]-N-[(1R,2S)-2-hydroxy-2,3-dihydro-1H-inden-1-yl]acetamide]
51.3	CCn1nc(-c2ccc(Cl)c(F)c2)nc1CC(=O)N[C@H]1C[C@H](O)c2ccccc21 [Example 68, 2-[3-(4-Chloro-3-fluorophenyl)-1-ethyl-1H-1,2,4-triazol-5-yl]-N-[(1S,3S)-3-hydroxy-2,3-dihydro-1H-inden-1-yl]acetamide]

Second part, the compound before the results:

Structure (SMILES)	activation at 30 µM [%]
CCn1nc(-c2ccc(Cl)c(F)c2)nc1C(F)(F)C(=O)NCc1cc(Cl)cc(Cl)c1 [Example 50, 2-[3-(4-Chloro-3-fluorophenyl)-1-ethyl-1H-1,2,4-triazol-5-yl]-N-[(3,5-dichlorophenyl)methyl]-2,2-difluoroacetamide]	36.7
CCn1nc(-c2ccc(Cl)c(F)c2)nc1C(F)(F)C(=O)NCc1ccc2[nH]c(C)nc2c1 [Example 52, 2-[3-(4-Chloro-3-fluorophenyl)-1-ethyl-1H-1,2,4-triazol-5-yl]-2,2-difluoro-N-[(2-methyl-1H-1,3-benzimidazol-5-yl)methyl]acetamide]	73.8
COC(=O)Cn1nc(-c2ccc(Cl)c(F)c2)nc1CC(=O)NCc1cc(Cl)cc(Cl)c1 [Example 54, Methyl 2-[3-(4-chloro-3-fluorophenyl)-5-({[(3,5-dichlorophenyl)methyl]carbamoyl}methyl)-1H-1,2,4-triazol-1-yl]acetate]	97.2
CCOC(=O)CCCn1nc(-c2ccc(Cl)c(F)c2)nc1CC(=O)NCc1cc(Cl)cc(Cl)c1 [Example 56, Ethyl 4-[3-(4-chloro-3-fluorophenyl)-5-({[(3,5-dichlorophenyl)methyl]carbamoyl}methyl)-1H-1,2,4-triazol-1-yl]butanoate]	155
O=C(O)CCn1nc(-c2ccc(Cl)c(F)c2)nc1CC(=O)NCc1cc(Cl)cc(Cl)c1 [Example 58, 3-[3-(4-Chloro-3-fluorophenyl)-5-({[(3,5-dichlorophenyl)methyl]carbamoyl}methyl)-1H-1,2,4-triazol-1-yl]propanoic acid]	128
CCn1nc(-c2ccc(Cl)c(F)c2)nc1CC(=O)NC1Cc2ccccc2C1 [Example 66, 2-[3-(4-Chloro-3-fluorophenyl)-1-ethyl-1H-1,2,4-triazol-5-yl]-N-(2,3-dihydro-1H-inden-2-yl)acetamide]	92.1
